Data from patent US20230159445A1, “STAT INHIBITORY COMPOUNDS AND COMPOSITIONS” (JANPIX LIMITED, priority 2020, published 2023).

Each molecule was assayed on MV4-11 cells (assay: MV4-11 Cell Cytotoxicity Assay (CellTiter-Blue, 72 h)). Conditions: Homo sapiens, MV4-11; MV-4-11 cells.
Assay type: cell-based, human
Procedure: In some embodiments, the potency of the STAT5 inhibitors are evaluated by an in vitro assay such as MV4-11 Cell Cytotoxicity Assay. […] 10,000 cells were plated per well in 96-well flat-bottom sterile culture plates with low-evaporation lids. After 24 h, inhibitors and a vehicle control (0.5% DMSO) were added and the cells were incubated for 72 h at 37° C. in 5% CO2. Inhibitors were examined in triplicate at a maximal concentration of 50 μM, followed by 1:2 dilutions in subsequent wells (25, 12.5, 6.25, 3.125, 1.5625, 0.78125, 0.390625, 0.195313 and 0.097656 μM). After 72 h, the wells were treated with CellTiter-Blue® (20 μL/well), and the plates were incubated using standard cell culture conditions for 1 hour. Fluorescence was measured at 560/590 nm.
`O=C(O)c1ccc(N(Cc2ccccn2)C(=O)CN(Cc2ccccc2C(F)(F)F)S(=O)(=O)c2c(F)c(F)c(F)c(F)c2F)c(OC2CC2)c1` [Compound 1127, 3-cyclopropoxy-4-(2-(N-(2-(trifluoromethyl)benzyl)-(2,3,4,5,6-pentafluoro-phenyl)sulfonamido)-N-(pyridin-2-ylmethyl)acetamido) benzoic acid] was tested, and the IC50 was 1000 to 3160 nM. `CN(C)c1cc(C(=O)O)cc(F)c1N(Cc1cc(C2CC2)cc(C(C)(C)C)c1)C(=O)CN(Cc1ccccc1F)S(=O)(=O)c1c(F)c(F)c(F)c(F)c1F` [Compound 1069, 4-(N-(3-(tert-butyl)-5-cyclopropylbenzyl)-2-(N-(2-fluorobenzyl)-(2,3,4,5,6-pentafluoro-phenyl)sulfonamido)acetamido)-3-(dimethylamino)-5-fluorobenzoic acid] was tested, and the IC50 was 316 to 1000 nM. With `COC(=O)c1ccc(N(Cc2cc(C3CC3)cc(C(C)(C)C)c2)C(=O)CN(Cc2ccc(Cl)cc2)S(=O)(=O)c2c(F)c(F)c(F)c(F)c2F)cc1O` [Compound 1051, methyl 4-(N-(3-(tert-butyl)-5-cyclopropylbenzyl)-2-(N-(4-chlorobenzyl)-(2,3,4,5,6-pentafluorophenyl)sulfon-amido)acetamido)-2-hydroxybenzoate] the IC50 was 3160 to 100000 nM. With `Cc1cc(C(=O)O)cc(C)c1N(Cc1cc(C2CC2)cc(C(C)(C)C)c1)C(=O)CN(Cc1ccc(F)cc1Cl)S(=O)(=O)c1c(F)c(F)c(F)c(F)c1F` [Compound 1187, 4-(N-(3-(tert-butyl)-5-cyclopropylbenzyl)-2-(N-(2-chloro-4-fluorobenzyl)-(2,3,4,5,6-pentafluorophenyl)sulfon-amido)acetamido)-3,5-dimethylbenzoic acid] the IC50 was 316 to 1000 nM. In the case of `COc1cc(C(=O)O)ccc1N(Cc1cc(C2CC2)cc(C(C)(C)C)c1)C(=O)CN(Cc1ccc(F)nc1Cl)S(=O)(=O)c1c(F)c(F)c(F)c(F)c1F` [Compound 1096, 4-(N-(3-(tert-butyl)-5-cyclopropylbenzyl)-2-(N-((2-chloro-6-fluoropyridin-3-yl)methyl)-(2,3,4,5,6-pentafluorophenyl)sulfon-amido)acetamido)-3-methoxybenzoic acid], the IC50 is reported as 0.01 to 316 nM. `CC(C)(C)c1cc(CN(C(=O)CN(Cc2ccccc2C(F)(F)F)S(=O)(=O)c2c(F)c(F)c(F)c(F)c2F)c2ccc(C(=O)O)cc2C2CC2)cc(C2CC2)c1` [Compound 1112, 4-(N-(3-(tert-butyl)-5-cyclopropylbenzyl)-2-(N-(2-(trifluoromethyl)benzyl)-(2,3,4,5,6-pentafluoro-phenyl)sulfonamido)acetamido)-3-cyclopropylbenzoic acid] gave an IC50 of 0.01 to 316 nM. `Cc1cc(C(=O)O)cc(C)c1N(Cc1cc(C2CC2)cc(N2CCCC2)c1)C(=O)CN(Cc1c(F)cc(F)cc1F)S(=O)(=O)c1c(F)c(F)c(F)c(F)c1F` [Compound 1205, 4-(N-(3-cyclopropyl-5-(pyrrolidin-1-yl)benzyl)-2-(N-(2,4,6-trifluorobenzyl)-(2,3,4,5,6-pentafluoro-phenyl)sulfonamido)acetamido)-3,5-dimethylbenzoic acid] gave an IC50 of 316 to 1000 nM. With `CC(C)(C)c1cc(CN(C(=O)CN(Cc2ccccc2F)S(=O)(=O)c2c(F)c(F)c(F)c(F)c2F)c2ccc(C(=O)O)cc2NCCCCl)cc(C2CC2)c1` [Compound 1074, 4-(N-(3-(tert-butyl)-5-cyclopropylbenzyl)-2-(N-(2-fluorobenzyl)-(2,3,4,5,6-pentafluoro-phenyl)sulfonamido)acetamido)-3-((3-chloropropyl)amino) benzoic acid] the IC50 was 1000 to 3160 nM. `CC(C)(C)c1cc(CN(C(=O)CN(Cc2cccc(O)c2)S(=O)(=O)c2c(F)c(F)c(F)c(F)c2F)c2ccc(C(=O)O)c(O)c2)cc(C2CC2)c1` [Compound 1035, 4-(N-(3-(tert-butyl)-5-cyclopropylbenzyl)-2-(N-(3-hydroxybenzyl)-(2,3,4,5,6-pentafluoro-phenyl)sulfonamido)acetamido)-2-hydroxybenzoic acid] was tested, and the IC50 was 3160 to 100000 nM. With `CN(C)CCOc1cc(C(=O)O)ccc1N(Cc1cc(C2CC2)cc(C(C)(C)C)c1)C(=O)CN(Cc1ccccc1F)S(=O)(=O)c1c(F)c(F)c(F)c(F)c1F` [Compound 1101, 4-(N-(3-(tert-butyl)-5-cyclopropylbenzyl)-2-(N-(2-fluorobenzyl)-(2,3,4,5,6-pentafluoro-phenyl)sulfonamido)taceamido)-3-(2-(dimethylamino)ethoxy) benzoic acid] the IC50 was 3160 to 100000 nM. For `COc1ccc(CN(CC(=O)N(Cc2cc(C3CC3)cc(C(C)(C)C)c2)c2ccc(C(=O)O)c(O)c2)S(=O)(=O)c2c(F)c(F)c(F)c(F)c2F)cc1F` [Compound 1027, 4-(N-(3-(tert-butyl)-5-cyclopropylbenzyl)-2-(N-(3-fluoro-4-methoxybenzyl)-(2,3,4,5,6-pentafluoro-phenyl)sulfonamido)acetamido)-2-hydroxybenzoic acid], the IC50 was 3160 to 100000 nM. With `CC(C)(C)c1cc(CN(C(=O)CN(Cc2ccccc2F)S(=O)(=O)c2c(F)c(F)c(F)c(F)c2F)c2ccc(C#N)c(F)c2)cc(C2CC2)c1` [Compound 1151, N-(3-(tert-butyl)-5-cyclopropylbenzyl)-N-(4-cyano-3-fluorophenyl)-2-(N-(2-fluorobenzyl)-(2,3,4,5,6-pentafluoro-phenyl)sulfonamido) acetamide] the IC50 was 3160 to 100000 nM. `CC(C)(C)c1cc(CN(C(=O)CN(Cc2cccc(C#N)c2)S(=O)(=O)c2c(F)c(F)c(F)c(F)c2F)c2ccc(C(=O)O)cc2OC2CC2)cc(C2CC2)c1` [Compound 1139, 4-(N-(3-(tert-butyl)-5-cyclopropylbenzyl)-2-(N-(3-cyanobenzyl)-(2,3,4,5,6-pentafluorophenyl)sulfon-amido)acetamido)-3-cyclopropoxybenzoic acid] showed an IC50 of 316 to 1000 nM. In the case of `Cc1cc(C(=O)O)cc(C)c1N(Cc1cc(C2CC2)cc(C(C)(C)C)c1)C(=O)CN(Cc1cnccc1C(F)(F)F)S(=O)(=O)c1c(F)c(F)c(F)c(F)c1F` [Compound 1181, 4-(N-(3-(tert-butyl)-5-cyclopropylbenzyl)-2-(N-((4-(trifluoromethyl)pyridin-3-yl)methyl)-(2,3,4,5,6-pentafluoro-phenyl)sulfonamido)acetamido)-3,5-dimethylbenzoic acid], the IC50 is reported as 316 to 1000 nM. `CN(C)c1cc(C(=O)O)ccc1N(Cc1cc(C2CC2)cc(C(C)(C)C)c1)C(=O)CN(Cc1c(F)cc(F)cc1F)S(=O)(=O)c1c(F)c(F)c(F)c(F)c1F` [Compound 1125, 4-(N-(3-(tert-butyl)-5 - cyclopropylbenzyl)-2-(N-(2,4,6-trifluorobenzyl)-(2,3,4,5,6-pentafluoro-phenyl)sulfonamido)acetamido)-3-(dimethylamino) benzoic acid] gave an IC50 of 316 to 1000 nM. Molecule `CN(C)c1cc(C(=O)O)c(F)cc1N(Cc1cc(C2CC2)cc(C(C)(C)C)c1)C(=O)CN(Cc1c(F)c(F)c(F)c(F)c1F)S(=O)(=O)c1c(F)c(F)c(F)c(F)c1F` [Compound 1107, 4-(N-(3-(tert-butyl)-5-cyclopropylbenzyl)-2-(N-((perfluorophenyl)methyl)-(2,3,4,5,6-pentafluoro-phenyl)sulfonamido)acetamido)-5-(dimethylamino)-2-fluorobenzoic acid] has an IC50 of 0.01 to 316 nM. `CN(C)c1cc(C(=O)O)c(F)cc1N(Cc1cc(C2CC2)cc(C(C)(C)C)c1)C(=O)CN(Cc1ccccc1C(F)(F)F)S(=O)(=O)c1c(F)c(F)c(F)c(F)c1F` [Compound 1113, 4-(N-(3-(tert-butyl)-5-cyclopropylbenzyl)-2-(N-(2-(trifluoromethyl)benzyl)-(2,3,4,5,6-pentafluoro-phenyl)sulfonamido)acetamido)-5-(dimethylamino)-2-fluorobenzoic acid] was tested, and the IC50 was 316 to 1000 nM. `CC(C)(C)c1cc(CN(C(=O)CN(Cc2ccccn2)S(=O)(=O)c2c(F)c(F)c(F)c(F)c2F)c2ccc(C(=O)O)c(O)c2)cc(C2CC2)c1` [Compound 1008, 4-(N-(3-(tert-butyl)-5-cyclopropylbenzyl)-2-(N-(pyridin-2-ylmethyl)-(2,3,4,5,6-pentafluorophenyl)sulfonamido)acetamido)-2-hydroxybenzoic acid] showed an IC50 of 3160 to 100000 nM. `CC(C)Cc1cc(CN(C(=O)CN(Cc2ccccc2F)S(=O)(=O)c2c(F)c(F)c(F)c(F)c2F)c2ccc(C(=O)O)c(O)c2)cc(C2CC2)c1` [Compound 1067, 4-(N-(3-cyclopropyl-5-isobutylbenzyl)-2-(N-(2-fluorobenzyl)-(2,3,4,5,6-pentafluoro-phenyl)sulfonamido)acetamido)-2-hydroxybenzoic acid] showed an IC50 of 3160 to 100000 nM.

Same assay, conditions: Homo sapiens; MV4-11 cells, 72 h, CellTiter-Blue; read-out: IC50- MV-4-11
`O=C(O)c1ccc(N(Cc2cc(Cl)cc(Cl)c2)C(=O)CN(Cc2ccc(Cl)cc2)S(=O)(=O)c2c(F)c(F)c(F)c(F)c2F)cc1O` [Compound 2012, 4-(2-(N-(4-chlorobenzyl)-(2,3,4,5,6-pentafluorophenyl)sulfon-amido)-N-(3,5-dichlorobenzyl)acetamido)-2-hydroxybenzoic acid] was tested, and the IC50 was 3160 to 100000 nM. In the case of `CC(C)(C)c1cc(CN(C(=O)CN(Cc2ccccc2)S(=O)(=O)c2c(F)c(F)c(F)c(F)c2F)c2ccc(C(=O)O)c(O)c2)cc(C(C)(C)C)c1` [Compound 2003, 4-(2-(N-benzyl-(2,3,4,5,6-pentafluorophenyl)sulfon-amido)-N-(3,5-di-tert-butylbenzyl)acetamido)-2-hydroxybenzoic acid], the IC50 is reported as 1000 to 3160 nM. For `CC(C)(C)c1cccc(CN(C(=O)CN(C23CC(C2)C3)S(=O)(=O)c2c(F)c(F)c(F)c(F)c2F)c2ccc(C(=O)O)c(O)c2)c1` [Compound 2011, 4-(2-(N-(bicyclo[1.1.1]pentan-1-yl)-(2,3,4,5,6-pentafluorophenyl)sulfon-amido)-N-(3-(tert-butyl)benzyl)acetamido)-2-hydroxybenzoic acid], the IC50 was 1000 to 3160 nM.
